The values that follow are results of earlier work, collected in patent EP1608381B1, “THERAPEUTIC AND CONSMETIC APPLICATION FOR A COMPOSITION CONTAINING LYCOPENE” (Touche, Marie-José, priority 2002, dated 2003).

SMILES strings stand for the structures.

The conditions of data set [1]: relative to Bétacarotène.

On to `CCCCOC(=O)c1ccc(N)cc1` [Butoforme, p-aminobenzoate de n- butyle], for which the “solubilité dans le chlorure de méthylène” value (chlorure de méthylène) is listed as “facilement soluble”. Also, the “solubilité dans l'eau froide” value (eau froide) is on record as “pratiquement insoluble”. Further, the “soluble dans p. d'alcool à 50°” value (parts of solvent, alcool à 50°) is 10 p. Also, the “soluble dans p. d'huile d'olive” value (parts of solvent, huile d'olive) is listed as 12,5 p. The “soluble dans p de vaseline” value (parts of solvent, vaseline) is on record as 200 p.
`C=CCc1ccc(O)c(OC)c1` [EUGENOL, eugénol]: where the note is “eau”, the “solubilité dans l'eau” value is on record as “insoluble”. For the same compound, the “solubilité dans l'éthanol” value (éthanol) was “soluble”.
Turning to `CC(C)=CCC/C(C)=C/C=C/C(C)=C/C=C/C(C)=C/C=C/C=C(C)/C=C/C=C(C)/C=C/C=C(\C)CCC=C(C)C` [lycopène, psi-psi-carotène], in data set [1], the “effet sur les radicaux libres, fois plus que le Bétacarotène” value is 2 fois.
